Columns and labels:
NCI-60 cancer cell lines = assay: NCI-60 cytotoxicity assay, MGM; format: cell-based; settings: Homo sapiens; entire panel of NCI-60 cancer cell lines; read-out: MGM (approximate average of GI50 values across the NCI-60 panel)
Procedure: (§1) The antiproliferative activities of the indenoisquinoline compounds are determined in the NCI-60 cancer cell lines of the National Cancer Institute Developmental Therapeutics Program (NCI-DTP). […] Cancer cells are incubated with the test compounds at five concentrations ranging from 100 μM to 10 nM for 48 h. After the treated cancer cells are stained with sulforhodamine B dye, the percentage growth is plotted as a function of the common logarithm of the tested compound concentration. […] The approximate average of GI50 values across the entire panel of NCI-60 cancer cell lines for each compound is recorded as the MGM value.
(§2) NCI-60 Cytotoxicity Assay. Compounds were submitted to the National Cancer Institute Developmental Therapeutic Program to determine their growth-inhibitory potentials in NCI-60 cell lines. All compounds satisfied the pre-screening proceeded into the 5-dose cell viability assay, in which cells were treated for 48 h at 5 dosages ranging from 100 μM to 10 nM.

SF-539 (CNS) = assay: NCI-60 cytotoxicity assay; format: cell-based; settings: Homo sapiens; SF-539 CNS; 48 h, sulforhodamine B; read-out: Comparative Cytotoxicity GI50, CNS SF-539
Procedure: as §1, §2

HCT-116 (Colon) = assay: NCI-60 cytotoxicity assay; format: cell-based, human; settings: Homo sapiens; HCT-116 colon; 48 h, sulforhodamine B; read-out: Comparative Cytotoxicity GI50, Colon HCT-116
Procedure: as §1, §2

HOP-62 (Lung) = assay: NCI-60 cytotoxicity assay; format: cell-based, human; settings: Homo sapiens; HOP-62 lung; 48 h, sulforhodamine B; read-out: Comparative Cytotoxicity GI50, Lung HOP-62
Procedure: as §1, §2

SN12C (Renal) = assay: NCI-60 cytotoxicity assay; format: cell-based, human; settings: Homo sapiens; SN12C renal; 48 h, sulforhodamine B; read-out: Comparative Cytotoxicity GI50, Renal SN12C
Procedure: as §1, §2

OVCAR-3 (Ovarian) = assay: NCI-60 cytotoxicity assay; format: cell-based, human; settings: Homo sapiens; OVCAR-3 ovarian; 48 h, sulforhodamine B; read-out: Comparative Cytotoxicity GI50, Ovarian OVCAR-3
Procedure: as §1, §2

MCF7 (Breast) = assay: NCI-60 cytotoxicity assay; format: cell-based, human; settings: Homo sapiens; MCF7 breast; 48 h, sulforhodamine B; read-out: Comparative Cytotoxicity GI50, Breast MCE7
Procedure: as §1, §2

UACC-62 (Melanoma) = assay: NCI-60 cytotoxicity assay; format: cell-based, human; settings: Homo sapiens; UACC-62 melanoma; 48 h, sulforhodamine B; read-out: Comparative Cytotoxicity GI50, Melanoma UACC-62
Procedure: as §1, §2

DU-145 (Prostate) = assay: NCI-60 cytotoxicity assay; format: cell-based, human; settings: Homo sapiens; DU-145 prostate; 48 h, sulforhodamine B; read-out: Comparative Cytotoxicity GI50, Prostate DU-145
Procedure: as §1, §2

Compound | GI50 (NCI-60 cancer cell lines) [nM] | GI50 (SF-539 (CNS)) [nM] | GI50 (HCT-116 (Colon)) [nM] | GI50 (HOP-62 (Lung)) [nM] | GI50 (SN12C (Renal)) [nM] | GI50 (OVCAR-3 (Ovarian)) [nM] | GI50 (MCF7 (Breast)) [nM] | GI50 (UACC-62 (Melanoma)) [nM] | GI50 (DU-145 (Prostate)) [nM]
COc1cc2c3c(n(CCCNCC4CC4)c(=O)c2cc1OC)-c1cc2c(cc1C3=O)OCO2 [A1] | 1320 | 760 | 1140 | 350 | 1370 | 1420 | 95 | 2860 | 760
COc1cc2c3c(n(CCCNC4CCC4)c(=O)c2cc1OC)-c1cc2c(cc1C3=O)OCO2 [A2] | 870 | 1050 | 900 | 220 | 1440 | 1380 | 57 | 1400 | 790
COc1cc2c3c(n(CCCNC4CCCC4)c(=O)c2cc1OC)-c1cc2c(cc1C3=O)OCO2 [A3] | 2690 | 1510 | 1200 | 2380 | 1800 | 1640 | 670 | 13000 | 1440
COc1cc2c3c(n(CCCN4CCCC4)c(=O)c2cc1OC)-c1cc2c(cc1C3=O)OCO2 [A4] | 1100 | 1330 | 1140 | 800 | 1640 | 1500 | 380 | 1480 | 1310
COc1cc2c3c(n(CCCN4CCC[C@H]4C(N)=O)c(=O)c2cc1OC)-c1cc2c(cc1C3=O)OCO2 [A5] | 125 | 30 | 35 | 31 | 42 | 160 | 10 | 21 | 38
